# Measured values from ChEMBL document CHEMBL5291721, “A preclinical secondary pharmacology resource illuminates target-adverse drug reaction associations of marketed drugs” (Nat Commun, 2023).
# Experiments:
# Adenosine receptor A1 = target: T1, Adenosine receptor A1 (Homo sapiens, UniProt P30542)
# T1 sequence (P30542 whole entry): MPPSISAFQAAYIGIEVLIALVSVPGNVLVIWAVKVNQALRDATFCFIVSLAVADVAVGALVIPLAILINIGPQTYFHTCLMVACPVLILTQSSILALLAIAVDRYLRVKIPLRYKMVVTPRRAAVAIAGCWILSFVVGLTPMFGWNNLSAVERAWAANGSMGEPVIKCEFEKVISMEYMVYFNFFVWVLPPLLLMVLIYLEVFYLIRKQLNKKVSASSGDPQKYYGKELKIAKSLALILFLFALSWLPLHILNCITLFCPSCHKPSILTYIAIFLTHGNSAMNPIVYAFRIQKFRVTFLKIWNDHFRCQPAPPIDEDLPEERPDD
# B1 bradykinin receptor = target: T2, B1 bradykinin receptor (Homo sapiens, UniProt P46663)
# T2 sequence (P46663 whole entry): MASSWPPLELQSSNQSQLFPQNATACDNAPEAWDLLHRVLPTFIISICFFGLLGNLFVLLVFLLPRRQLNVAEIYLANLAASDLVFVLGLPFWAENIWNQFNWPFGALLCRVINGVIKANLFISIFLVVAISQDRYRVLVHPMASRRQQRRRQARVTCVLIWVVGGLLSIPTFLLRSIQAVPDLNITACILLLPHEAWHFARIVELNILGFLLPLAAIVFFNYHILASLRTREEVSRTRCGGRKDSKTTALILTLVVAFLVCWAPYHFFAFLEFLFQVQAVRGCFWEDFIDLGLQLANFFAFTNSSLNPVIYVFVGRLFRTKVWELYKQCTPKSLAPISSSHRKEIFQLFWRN
# Cannabinoid receptor 1 = Cannabinoid receptor 1 (Homo sapiens, UniProt P21554)
# [1] = target: T3, Corticotropin-releasing factor receptor 2 (Homo sapiens, UniProt Q13324)
# T3 sequence (Q13324 whole entry): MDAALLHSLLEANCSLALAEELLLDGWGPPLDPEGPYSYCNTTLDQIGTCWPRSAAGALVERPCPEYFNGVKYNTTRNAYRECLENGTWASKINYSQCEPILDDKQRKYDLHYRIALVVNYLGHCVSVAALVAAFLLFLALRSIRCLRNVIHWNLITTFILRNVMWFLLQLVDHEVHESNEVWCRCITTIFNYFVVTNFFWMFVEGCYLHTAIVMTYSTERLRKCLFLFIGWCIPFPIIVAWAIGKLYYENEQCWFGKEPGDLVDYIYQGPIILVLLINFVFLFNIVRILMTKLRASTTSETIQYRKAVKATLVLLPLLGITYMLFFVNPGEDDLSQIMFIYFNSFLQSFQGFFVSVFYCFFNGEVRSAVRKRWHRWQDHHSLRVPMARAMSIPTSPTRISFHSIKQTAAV
# [2] = target: T4, Gamma-aminobutyric acid receptor subunit alpha-1/alpha-2/beta-2/gamma-2 (Homo sapiens, UniProt P14867+P18507+P47869+P47870); assay type: protein-complex assay
# Histamine H2 receptor = Histamine H2 receptor (Homo sapiens, UniProt P25021)
# [3] = target: T5, Muscarinic acetylcholine receptor M1 (Homo sapiens, UniProt P11229); assay type: functional
# T5 sequence (P11229 whole entry): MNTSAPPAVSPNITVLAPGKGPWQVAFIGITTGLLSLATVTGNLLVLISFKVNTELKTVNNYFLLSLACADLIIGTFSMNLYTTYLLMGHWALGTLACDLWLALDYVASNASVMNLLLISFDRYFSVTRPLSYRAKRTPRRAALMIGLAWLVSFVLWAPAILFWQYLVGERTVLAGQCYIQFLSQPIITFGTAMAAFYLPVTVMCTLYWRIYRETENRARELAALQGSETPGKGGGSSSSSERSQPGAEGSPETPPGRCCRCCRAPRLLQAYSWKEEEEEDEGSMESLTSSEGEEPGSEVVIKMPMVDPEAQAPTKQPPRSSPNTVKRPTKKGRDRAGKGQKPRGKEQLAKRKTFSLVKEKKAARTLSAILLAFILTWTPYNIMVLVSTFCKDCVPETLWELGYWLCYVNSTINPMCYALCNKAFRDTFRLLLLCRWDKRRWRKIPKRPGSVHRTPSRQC
# [4] = target: T4, Gamma-aminobutyric acid receptor subunit alpha-1/alpha-2/beta-2/gamma-2; assay type: functional, cell-based
# [5] = target: 5-hydroxytryptamine receptor 2A (Homo sapiens, UniProt P28223); assay type: functional, cell-based
# Mu-type opioid receptor = Mu-type opioid receptor (Homo sapiens, UniProt P35372); assay: biochemical; assay type: functional
# Estrogen receptor = target: T6, Estrogen receptor (Homo sapiens, UniProt P03372)
# T6 sequence (P03372 whole entry): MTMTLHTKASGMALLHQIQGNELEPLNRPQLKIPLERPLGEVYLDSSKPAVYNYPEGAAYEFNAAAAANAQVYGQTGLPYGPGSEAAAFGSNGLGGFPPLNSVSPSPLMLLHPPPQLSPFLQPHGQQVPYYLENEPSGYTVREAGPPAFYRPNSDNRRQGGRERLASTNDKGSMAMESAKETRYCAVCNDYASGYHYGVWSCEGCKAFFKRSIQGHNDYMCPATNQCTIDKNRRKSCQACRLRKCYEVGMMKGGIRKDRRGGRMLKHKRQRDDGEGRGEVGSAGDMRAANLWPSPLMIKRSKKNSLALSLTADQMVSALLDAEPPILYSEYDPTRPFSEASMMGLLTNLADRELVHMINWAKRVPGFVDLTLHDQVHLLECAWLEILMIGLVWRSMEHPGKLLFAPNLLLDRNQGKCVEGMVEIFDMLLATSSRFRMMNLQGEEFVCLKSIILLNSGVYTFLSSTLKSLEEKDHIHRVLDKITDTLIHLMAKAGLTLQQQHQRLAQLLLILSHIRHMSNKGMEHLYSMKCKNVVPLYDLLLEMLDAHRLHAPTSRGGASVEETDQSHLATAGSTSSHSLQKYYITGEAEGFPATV
# Also: assay procedure not described here.
# Chain of Cannabinoid receptor 1 (P21554 whole entry): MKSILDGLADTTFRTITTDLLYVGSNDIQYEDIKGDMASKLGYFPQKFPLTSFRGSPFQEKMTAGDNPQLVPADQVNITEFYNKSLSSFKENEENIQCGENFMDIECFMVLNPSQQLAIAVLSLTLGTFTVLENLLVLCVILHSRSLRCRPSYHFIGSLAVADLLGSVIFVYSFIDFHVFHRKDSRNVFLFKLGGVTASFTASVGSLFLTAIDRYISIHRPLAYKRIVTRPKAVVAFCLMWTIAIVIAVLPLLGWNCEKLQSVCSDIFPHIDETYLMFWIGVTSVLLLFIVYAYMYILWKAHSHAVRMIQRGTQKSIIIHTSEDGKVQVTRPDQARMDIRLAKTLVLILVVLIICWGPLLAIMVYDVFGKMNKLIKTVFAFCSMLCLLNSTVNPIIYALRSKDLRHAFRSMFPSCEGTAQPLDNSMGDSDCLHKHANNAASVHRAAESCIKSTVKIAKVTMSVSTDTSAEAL
# T4 sequence (P14867 whole entry): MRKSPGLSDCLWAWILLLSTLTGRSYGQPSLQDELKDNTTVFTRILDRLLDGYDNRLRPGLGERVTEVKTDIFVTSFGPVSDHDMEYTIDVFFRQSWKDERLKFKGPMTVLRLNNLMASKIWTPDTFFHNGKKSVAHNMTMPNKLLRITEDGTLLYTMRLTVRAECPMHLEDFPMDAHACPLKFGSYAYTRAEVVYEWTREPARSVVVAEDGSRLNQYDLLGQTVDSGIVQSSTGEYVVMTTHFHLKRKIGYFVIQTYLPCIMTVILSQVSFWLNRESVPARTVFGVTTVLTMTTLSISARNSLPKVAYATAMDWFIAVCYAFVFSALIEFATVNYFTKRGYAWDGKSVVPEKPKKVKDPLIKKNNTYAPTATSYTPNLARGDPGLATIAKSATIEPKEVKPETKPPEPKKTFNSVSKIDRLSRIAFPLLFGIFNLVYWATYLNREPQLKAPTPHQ
# T4 sequence (P47870 whole entry): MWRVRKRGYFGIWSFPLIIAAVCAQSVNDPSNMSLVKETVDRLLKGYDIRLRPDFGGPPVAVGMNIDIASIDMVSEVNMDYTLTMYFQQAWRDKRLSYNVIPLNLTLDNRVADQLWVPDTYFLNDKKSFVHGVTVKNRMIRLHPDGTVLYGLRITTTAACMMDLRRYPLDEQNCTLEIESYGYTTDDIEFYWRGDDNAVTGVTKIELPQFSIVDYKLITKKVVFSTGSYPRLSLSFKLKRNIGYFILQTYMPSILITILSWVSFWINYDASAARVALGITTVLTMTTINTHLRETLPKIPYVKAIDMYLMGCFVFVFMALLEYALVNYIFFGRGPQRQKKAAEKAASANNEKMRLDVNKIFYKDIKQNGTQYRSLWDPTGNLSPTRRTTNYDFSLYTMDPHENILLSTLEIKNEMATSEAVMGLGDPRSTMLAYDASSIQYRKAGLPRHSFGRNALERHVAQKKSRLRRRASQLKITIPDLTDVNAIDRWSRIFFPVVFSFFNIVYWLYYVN
# T4 sequence (P18507 whole entry): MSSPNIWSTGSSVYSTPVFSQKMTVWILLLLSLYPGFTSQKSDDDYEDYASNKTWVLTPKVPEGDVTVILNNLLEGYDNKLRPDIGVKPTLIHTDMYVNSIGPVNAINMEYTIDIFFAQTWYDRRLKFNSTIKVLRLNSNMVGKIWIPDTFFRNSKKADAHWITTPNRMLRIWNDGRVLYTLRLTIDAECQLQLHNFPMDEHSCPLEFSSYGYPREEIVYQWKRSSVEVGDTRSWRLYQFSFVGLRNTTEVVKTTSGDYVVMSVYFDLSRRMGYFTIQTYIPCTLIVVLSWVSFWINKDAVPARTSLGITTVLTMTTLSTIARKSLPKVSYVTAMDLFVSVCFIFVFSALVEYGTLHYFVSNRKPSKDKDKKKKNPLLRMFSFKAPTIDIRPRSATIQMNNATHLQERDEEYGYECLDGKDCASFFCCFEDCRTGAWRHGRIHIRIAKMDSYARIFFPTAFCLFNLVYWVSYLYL
# T4 sequence (P47869 whole entry): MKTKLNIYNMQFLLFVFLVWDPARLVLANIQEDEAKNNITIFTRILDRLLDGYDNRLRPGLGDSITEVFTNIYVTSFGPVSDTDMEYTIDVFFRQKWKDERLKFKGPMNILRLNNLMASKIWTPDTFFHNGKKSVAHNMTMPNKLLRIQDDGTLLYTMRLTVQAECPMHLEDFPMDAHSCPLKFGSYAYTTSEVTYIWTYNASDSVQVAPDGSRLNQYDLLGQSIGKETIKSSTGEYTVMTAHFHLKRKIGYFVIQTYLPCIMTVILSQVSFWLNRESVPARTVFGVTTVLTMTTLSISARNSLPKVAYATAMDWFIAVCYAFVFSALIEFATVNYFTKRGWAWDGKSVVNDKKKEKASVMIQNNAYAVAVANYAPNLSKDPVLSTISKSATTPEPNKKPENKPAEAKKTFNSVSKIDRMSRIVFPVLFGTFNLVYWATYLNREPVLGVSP
# Chain of Mu-type opioid receptor (P35372 whole entry): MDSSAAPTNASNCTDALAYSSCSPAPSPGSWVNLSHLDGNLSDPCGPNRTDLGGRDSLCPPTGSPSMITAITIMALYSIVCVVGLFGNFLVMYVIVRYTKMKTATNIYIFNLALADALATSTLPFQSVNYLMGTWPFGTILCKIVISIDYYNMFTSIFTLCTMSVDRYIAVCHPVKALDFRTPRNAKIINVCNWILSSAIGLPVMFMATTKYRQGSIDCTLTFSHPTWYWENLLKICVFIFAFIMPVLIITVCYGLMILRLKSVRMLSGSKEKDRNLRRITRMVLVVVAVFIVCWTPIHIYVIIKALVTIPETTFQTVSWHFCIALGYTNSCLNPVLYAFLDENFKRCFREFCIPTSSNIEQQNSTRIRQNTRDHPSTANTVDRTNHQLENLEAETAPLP
# Chain of Histamine H2 receptor (P25021 whole entry): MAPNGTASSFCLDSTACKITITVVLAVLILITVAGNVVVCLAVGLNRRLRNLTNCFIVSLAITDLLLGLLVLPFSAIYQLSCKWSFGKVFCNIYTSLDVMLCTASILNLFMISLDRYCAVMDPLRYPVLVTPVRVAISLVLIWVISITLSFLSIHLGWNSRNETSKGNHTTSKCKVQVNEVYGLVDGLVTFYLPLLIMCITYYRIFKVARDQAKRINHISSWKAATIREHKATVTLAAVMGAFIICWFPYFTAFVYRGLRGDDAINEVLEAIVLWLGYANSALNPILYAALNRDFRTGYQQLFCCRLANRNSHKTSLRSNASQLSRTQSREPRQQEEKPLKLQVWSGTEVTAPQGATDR
# Chain of 5-hydroxytryptamine receptor 2A (P28223 whole entry): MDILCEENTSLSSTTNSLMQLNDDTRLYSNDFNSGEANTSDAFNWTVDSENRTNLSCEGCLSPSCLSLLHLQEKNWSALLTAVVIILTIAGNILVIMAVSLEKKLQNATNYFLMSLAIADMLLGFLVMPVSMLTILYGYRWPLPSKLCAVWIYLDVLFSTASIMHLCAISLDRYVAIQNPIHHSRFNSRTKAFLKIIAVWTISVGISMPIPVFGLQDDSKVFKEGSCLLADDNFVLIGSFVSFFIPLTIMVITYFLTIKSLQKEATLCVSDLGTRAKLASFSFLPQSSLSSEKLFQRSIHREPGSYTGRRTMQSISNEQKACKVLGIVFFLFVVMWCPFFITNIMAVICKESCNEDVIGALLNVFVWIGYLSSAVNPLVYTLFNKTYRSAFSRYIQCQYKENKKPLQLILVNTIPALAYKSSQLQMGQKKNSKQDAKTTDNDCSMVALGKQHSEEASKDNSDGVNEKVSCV
SMILES,AC50 (Adenosine receptor A1) [µM],AC50 (B1 bradykinin receptor) [µM],AC50 (Cannabinoid receptor 1) [µM],AC50 [1] [µM],AC50 [2] [µM],AC50 (Histamine H2 receptor) [µM],AC50 [3] [µM],AC50 [4] [µM],AC50 [5] [µM],AC50 (Mu-type opioid receptor) [µM],AC50 (Estrogen receptor) [µM]
CN[C@@H]1[C@H](O[C@H]2[C@H](O[C@H]3[C@H](O)[C@@H](O)[C@H](NC(=N)N)[C@@H](O)[C@@H]3NC(=N)N)O[C@@H](C)[C@]2(O)CO)O[C@@H](CO)[C@H](O)[C@H]1O [DIHYDROSTREPTOMYCIN],> 30,–,–,–,–,–,–,–,–,–,–
O=C(O)Cc1ccccc1Nc1c(Cl)cccc1Cl [DICLOFENAC],–,> 30,> 10,> 30,> 3,> 10,–,–,–,–,–
C[N+](C)(C)CCOP(=O)(O)OP(=O)([O-])OC[C@H]1O[C@@H](n2ccc(N)nc2=O)[C@H](O)[C@@H]1O [CITICOLINE],> 30,–,–,–,–,–,> 10,> 30,> 30,> 30,–
O=C1Cc2cc(CCN3CCN(c4nsc5ccccc45)CC3)c(Cl)cc2N1 [ZIPRASIDONE],> 30,> 30,> 10,> 30,> 30,0.596,> 10,–,–,–,> 30
COc1ccccc1OC1(C)OC(=O)c2ccccc2O1 (configuration not stated) [GUAIMESAL],> 30,–,–,–,–,–,–,–,–,–,> 30
CN(CCOc1ccc(CC2SC(=O)NC2=O)cc1)c1ccccn1 (configuration not stated) [ROSIGLITAZONE],–,> 30,16,> 30,–,> 10,–,–,–,> 30,> 30
C[N+](C)(CCCCCC[N+](C)(C)C1c2ccccc2-c2ccccc21)C1c2ccccc2-c2ccccc21 [HEXAFLUORENIUM],> 30,–,–,–,–,–,–,–,–,–,–
CC[C@H]1OC(=O)[C@H](C)[C@@H](O[C@H]2C[C@@](C)(OC)[C@@H](O)[C@H](C)O2)[C@H](C)[C@@H](O[C@@H]2O[C@H](C)C[C@H](N(C)C)[C@H]2O)[C@](C)(O)C[C@@H](C)[C@@H]2N[C@@H](COCCOC)O[C@H]([C@H]2C)[C@]1(C)O [DIRITHROMYCIN],> 30,–,–,–,–,–,–,–,–,–,–
O=C(O)Cc1ccccc1Oc1ccc(Cl)cc1Cl [FENCLOFENAC],–,> 30,> 10,> 30,–,> 10,> 10,–,–,–,> 30
CCCc1nc2c(C)cc(-c3nc4ccccc4n3C)cc2n1Cc1ccc(-c2ccccc2C(=O)O)cc1,–,> 30,> 30,> 30,–,> 10,> 30,> 30,–,3.7,> 30
C#C[C@]1(O)C=C[C@H]2[C@@H]3CCC4=CC(=O)CC[C@@H]4[C@H]3CC[C@@]21CC [GESTODENE],> 30,–,–,–,–,–,–,–,–,–,–
CCOc1nc2cccc(C(=O)O)c2n1Cc1ccc(-c2ccccc2-c2nnn[nH]2)cc1,–,> 30,> 10,> 30,–,> 10,–,> 30,–,–,> 30
Nc1c(CC(=O)O)cccc1C(=O)c1ccc(Br)cc1 [BROMFENAC],23.6,–,–,–,–,–,–,–,–,–,–
COc1cc(C(C)=O)ccc1OCCCN1CCC(c2noc3cc(F)ccc23)CC1 [ILOPERIDONE],> 30,–,–,–,–,–,6.38,> 30,–,–,–
CC(C)NC(=N)NC(=N)Nc1ccc(Cl)c(Cl)c1 [CHLORPROGUANIL],> 30,–,–,–,–,–,> 30,> 30,3.6,> 30,–
CC(CN1c2ccccc2Sc2ccccc21)N(C)C (configuration not stated) [PROMETHAZINE],> 30,> 30,> 10,> 30,–,0.0536,–,–,–,–,–
CC[C@H](C)C(=O)O[C@H]1C[C@@H](C)C=C2C=C[C@H](C)[C@H](CC[C@@H]3C[C@@H](O)CC(=O)O3)[C@H]21 [LOVASTATIN],–,> 30,> 10,> 30,–,> 10,–,–,–,–,> 30
CC(C)C[C@H](NC(=O)[C@@H](O)[C@H](N)Cc1ccccc1)C(=O)O [UBENIMEX],> 30,–,–,–,–,–,–,–,–,> 30,> 30
